Laboratory results taken from patent publication US20230304058A1, “NOVEL 5'CAP ANALOG HAVING CAP2 STRUCTURE AND PREPARATION METHOD THEREFOR” (Shenzhen Rhegen Biotechnology Co., Ltd., priority 2020, published 2023).

Columns and labels:
[1] = target: T1, T7 Enzyme Mix (Escherichia phage T7, UniProt P00573); conditions: background, co-transcriptional capping; cited from earlier work
[2] = background; cited from earlier work
[3] = tested on: TLR3, TLR7, TLR8 and RIG-1; assay: Intracellular immunogenicity of capped mRNA by RNA immunoprecipitation and quantitative PCR; format: cell-based; conditions: relative to ARCA; Human-derived PBMC cells, 5 μg mRNA, Lipofectamine 2000, 24 h
Experimental: Experimental methods: the intracellular immunoproteins TLR3, TLR7, TLR8 and RIG-1 were immunoprecipitated together with their bound RNAs by RNA immunoprecipitation, and finally these mRNAs were identified by real-time quantitative PCR, and their relative abundance was proportional to their immunogenicity.
The cells were collected by trypsin digestion 24 h later and resuspended in PBS, centrifuged, and collected.
Fixative was added to the cells, and after 15 minutes glycine was added for termination of fixation, followed by centrifugation to collect the cells. Cells were resuspended by adding lysate, incubated on ice at 4° C. for 30 min, centrifuged at 2400 g for 10 min, and the supernatant was collected.
TLR3, TLR7, TLR8 and RIG-1 antibodies (2-10 μg) were added to the supernatant (6-10 mg) followed by gentle incubation at 4° C. for 2 hours. Protein AIG beads (40 μL) were then added to them and incubated gently for 1 h at 4° C.
Centrifuge at 2500 rpm for 30 seconds with precipitated magnetic beads and remove the supernatant. Resuspend the beads in 500 μL of RIP buffer. Wash in RIP buffer a total of three times, followed by one wash in PBS.
Resuspend magnetic beads in TRIzol RNA Extraction Reagent (1 mL) and isolate co-precipitated RNA, and then elute RNA using nuclease-free water (20 μL).
6. Reverse transcribe (RT) the RNA into cDNA and design primers according to the mRNA sequence for quantitative PCR analysis. mRNA immunogenicity is proportional to the number of mRNA copies precipitated by magnetic beads.

[4] = tested on: mRNA; conditions: background, co-transcriptional capping; cited from earlier work
[5] = tested on: mRNA; assay: mRNA capping rate by RNase H cleavage and LC-MS; format: biochemical; conditions: ratio of capped and uncapped mRNA
Text: The mRNA molecules with different Cap structures obtained in Example 1 were subjected to enzymatic cleavage, and the ratio of capped and uncapped mRNA molecules could be determined in a liquid chromatography-mass spectrometry analysis experiment.
1. Concentrate the beads using a magnet, aspirate the supernatant storage solution, and add an equal volume of 0.1 M NaOH +0.05 M NaCl;
2. Aspirate the supernatant and resuspend the beads with an equal volume of 0.1 M NaCl, keep the concentration constant;
3. Anneal mRNA and cleavage tags, configure the following reaction system;
Gradient annealing: 95° C. 5 min
4. Combining cleavage tags with beads • Beads were centrifuged at 15,000 g for 5 min, and the supernatant was removed, then 120 μl of annealed mRNA and tags were added and incubated for 30 min at room temperature, during which time they were gently shaken to ensure adequate binding.
5. Enzyme cleavage using RNase H; • Add 10 μl RNase H and incubate at 37° C. for 3 h. Precipitate the beads with magnet and discard the supernatant. • Add 100 μl washing buffer, mix thoroughly, magnet precipitate for 2 min, and discard the supernatant. Repeat 3 times. • Wash with DI water for 3 times.
6. Hydrolysis with RppH; • Use 10 units RppH in nebuffer 2 to hydrolyze at room temperature for 1 h.
DI water was aspirated, 100 μl of 75% ethanol preheated to 80° C. was added, incubat for 3 min, and magnet precipitat for 3 min. The supernatant was taken, followed by evaporating, and centrifuge for 45 min to a volume of 10 μl. Finally, the sample was resuspended in 50 μl of […] EDTA/1% MeOH and left for LC-MS analysis.
9. the mRNA capping rate of different Cap analogs synthesized was analyzed with LC-MS.

[6] = target: T1, T7 Enzyme Mix; assay: In vitro transcription mRNA synthesis with cap analog, reaction yield; format: biochemical; conditions: per ml transcription reaction system; 37° C. for 6 h; LiCl purification
Experimental: 1. Before synthesizing mRNA, linearize the plasmid with Notl, digested at […] overnight;
2. Extract with DNA template;
React at 37° C. for 6 h. Digest with TURBO DNase for 15 min.
4. Purify the transcription products using LiCl solution and calculate the reaction yields.

T1 sequence (P00573 whole entry): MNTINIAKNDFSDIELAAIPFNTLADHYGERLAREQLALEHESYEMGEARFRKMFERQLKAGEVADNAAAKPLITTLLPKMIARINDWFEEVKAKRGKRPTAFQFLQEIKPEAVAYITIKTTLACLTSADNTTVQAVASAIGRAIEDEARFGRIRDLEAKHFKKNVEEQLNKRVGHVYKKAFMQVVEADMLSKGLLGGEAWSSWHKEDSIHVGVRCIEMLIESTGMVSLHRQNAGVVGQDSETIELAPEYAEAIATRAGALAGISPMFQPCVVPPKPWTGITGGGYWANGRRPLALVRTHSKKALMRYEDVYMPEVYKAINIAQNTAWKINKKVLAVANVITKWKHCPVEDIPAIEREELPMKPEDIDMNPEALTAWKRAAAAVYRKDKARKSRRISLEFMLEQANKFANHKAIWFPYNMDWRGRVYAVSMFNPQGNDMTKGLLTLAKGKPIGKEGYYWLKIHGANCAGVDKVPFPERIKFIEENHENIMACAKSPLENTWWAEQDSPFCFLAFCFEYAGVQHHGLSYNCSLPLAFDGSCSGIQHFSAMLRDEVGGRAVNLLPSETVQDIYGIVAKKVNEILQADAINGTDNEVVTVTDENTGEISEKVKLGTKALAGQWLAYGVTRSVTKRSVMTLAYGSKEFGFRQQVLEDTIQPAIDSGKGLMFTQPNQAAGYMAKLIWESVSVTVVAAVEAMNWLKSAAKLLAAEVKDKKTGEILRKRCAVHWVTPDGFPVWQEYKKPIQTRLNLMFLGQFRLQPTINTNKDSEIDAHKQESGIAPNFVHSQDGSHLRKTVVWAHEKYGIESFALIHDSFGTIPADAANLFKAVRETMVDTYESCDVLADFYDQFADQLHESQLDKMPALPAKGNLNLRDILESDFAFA

SMILES | RNA prepared per ml of transcription reaction system [1] [mg] | immunogenicity of transcribed product [2] | Intracellular immunogenicity of mRNA when using different Cap structures [3] | capping efficiency [4] [%] | mRNA capping rates when using different Cap structures [5] [%] | Mass of final product obtained from 1 ml mRNA synthesis reaction system [6] [mg]
CO[C@H]1[C@@H](O)[C@H](n2c[n+](C)c3c(=O)[nH]c(N)nc32)O[C@@H]1COP(=O)(O)OP(=O)(O)OP(=O)(O)OC[C@H]1O[C@@H](n2cnc3c(=O)[nH]c(N)nc32)[C@H](O)[C@@H]1O [ARCA] | ≤ 1.5 | highly immunogenic | 1 | 70 |  | 
COC1C(OP(=O)(O)OCC2OC(n3cnc4c(=O)[nH]c(N)nc43)C(O)C2O)C(COP(=O)(O)OP(=O)([O-])OP(=O)(O)OCC2OC(n3c[n+](C)c4c(=O)[nH]c(N)nc43)C(O)C2O)OC1n1cnc2c(N)ncnc21 (centres unmarked) [Cleancap] | 4 | less immunogenic than ARCA | 0.76 | 90 |  | 
CO[C@@H]1[C@H](OP(=O)(O)OC[C@H]2O[C@@H](n3cnc4c(N)ncnc43)[C@H](OC)[C@@H]2O)[C@@H](COP(=O)(O)OP(=O)(O)OP(=O)([O-])OC[C@H]2O[C@@H](n3c[n+](C)c4c(=O)[nH]c(N)nc43)[C@H](O)[C@@H]2OC)O[C@H]1n1ccc(=O)[nH]c1=O [Cap analog 24, 3-O-Me-m7G(5′)ppp(5′)(2′OMeU)p(2′OMeA)] |  |  | 0.48 |  | 94.72 | 4.7
CO[C@@H]1[C@H](O)[C@@H](COP(=O)(O)O[C@H]2[C@@H](OC)[C@H](n3ccc(N)nc3=O)O[C@@H]2COP(=O)(O)OP(=O)(O)OP(=O)([O-])OC[C@H]2O[C@@H](n3c[n+](C)c4c(=O)[nH]c(N)nc43)[C@H](O)[C@@H]2O)O[C@H]1n1ccc(N)nc1=O [Cap analog 11, m7G(5′)ppp(5′)(2′OMeC)p(2′OMeC)] |  |  | 0.31 |  | 95.2 | 4.7
CO[C@@H]1[C@H](O)[C@@H](COP(=O)(O)O[C@H]2[C@@H](OC)[C@H](n3cnc4c(=O)[nH]c(N)nc43)O[C@@H]2COP(=O)(O)OP(=O)(O)OP(=O)([O-])OC[C@H]2O[C@@H](n3c[n+](C)c4c(=O)[nH]c(N)nc43)[C@H](O)[C@@H]2O)O[C@H]1n1ccc(=O)[nH]c1=O [Cap analog 14, m7G(5′)ppp(5′)(2′OMeG)p(2′OMeU)] |  |  | 0.35 |  | 94.82 | 5.5
CO[C@@H]1[C@H](O)[C@@H](COP(=O)(O)O[C@H]2[C@@H](OC)[C@H](n3cnc4c(=O)[nH]c(N)nc43)O[C@@H]2COP(=O)(O)OP(=O)(O)OP(=O)([O-])OC[C@H]2O[C@@H](n3c[n+](C)c4c(=O)[nH]c(N)nc43)[C@H](O)[C@@H]2O)O[C@H]1n1cnc2c(N)ncnc21 [Cap analog 6, m7G(5′)ppp(5′)(2′OMeG)p(2′OMeA)] |  |  | 0.38 |  | 94.65 | 5.1
